Reference: patent US11926628B2 (Gilead Sciences, Inc., priority 2021, dated 2024)
pEC50, pIC50: −log10 of the molar value.

How the values were obtained:
[1] = system: Jurkat NFκB-luciferase cells; assay: Jurkat NFκB-Luciferase Assay; type: cell-based; conditions: Homo sapiens; Jurkat NFκB-luciferase cells activated with anti-CD3 antibody (OKT3), 2.5 hrs at 37° C.; geometric mean; read-out: DGK NFKb Luciferase EC50
Description: The activity of compounds was tested in a cell based NFκB reporter assay. Jurkat cells that are stably expressing a luciferase reporter construct under the transcriptional control of a NFκB reporter element were activated with an anti-CD3 antibody and luciferase levels were measured with a bioluminescence readout. An increase in the levels of bioluminescence was indicative of enhanced T-cell activation following DGKα inhibition by the compound.
Flat-bottom polystyrene plates (384-well, tissue culture treated) were coated overnight at 4° C. with 20 ul/well of a solution of phosphate-buffered saline supplemented with 5 ug/ml anti-CD3 antibody (clone OKT3, Biolegend). The day after, the excess antibody was washed out five times with 100 ul/well of assay medium (RPMI supplemented with 10% fetal bovine serum) using a Biotek EL406 instrument and leaving 20 ul of residual volume in each well. Jurkat NFκB-luciferase cells (Promega #) were harvested and diluted to 1 million cells/ml in assay medium. Sixty nanoliters of test compound dissolved in DMSO at various concentrations were dispensed into 384-well v-bottom polypropylene plates (Greiner) using a Labcyte Echo instrument. Thirty microliters of medium containing the Jurkat NFκB-luciferase cells were then dispensed using a Biotek MicroFlo instrument in each well of the compound-containing plate. The medium/cell/compound mixture was mixed with a Bravo instrument and 20 ul/well of the mixture was transferred to the anti-CD3-coated plate. The assay mixture was then incubated for 2.5 hrs at 37° C. followed by equilibration at 25° C. for 30 min. Forty microliters of One-Glo Ex (Promega) was then added to the assay mixture and luciferase activity was read on a Envision plate reader 7 minutes later.
Bioluminescence data were normalized based on maximum enhancement (1 micromolar of compound) and on basal activation (DMSO) controls. Least squares curve fittings were performed using a four-parameter variable slope nonlinear regression model. EC50 is defined as the concentration of compound required to produce 50% of maximum NFκB luciferase signal. EC50 values from multiple experiments were averaged by geometric mean and the standard deviation was calculated.

[2] = biological target: human DGKα (Homo sapiens (Human), UniProt P23743); assay: DGKα Biochemical Activity Assay (ADP-Glo); conditions: recombinant DGKα 1 nM, 100 μM ATP, 18:1 DAG/POPS/octylglucoside micelles, 1 hour at 25° C.; geometric mean; read-out: HTBS DGKa 1X ATP KM IC50
Sequence of human DGKα (P23743 whole entry): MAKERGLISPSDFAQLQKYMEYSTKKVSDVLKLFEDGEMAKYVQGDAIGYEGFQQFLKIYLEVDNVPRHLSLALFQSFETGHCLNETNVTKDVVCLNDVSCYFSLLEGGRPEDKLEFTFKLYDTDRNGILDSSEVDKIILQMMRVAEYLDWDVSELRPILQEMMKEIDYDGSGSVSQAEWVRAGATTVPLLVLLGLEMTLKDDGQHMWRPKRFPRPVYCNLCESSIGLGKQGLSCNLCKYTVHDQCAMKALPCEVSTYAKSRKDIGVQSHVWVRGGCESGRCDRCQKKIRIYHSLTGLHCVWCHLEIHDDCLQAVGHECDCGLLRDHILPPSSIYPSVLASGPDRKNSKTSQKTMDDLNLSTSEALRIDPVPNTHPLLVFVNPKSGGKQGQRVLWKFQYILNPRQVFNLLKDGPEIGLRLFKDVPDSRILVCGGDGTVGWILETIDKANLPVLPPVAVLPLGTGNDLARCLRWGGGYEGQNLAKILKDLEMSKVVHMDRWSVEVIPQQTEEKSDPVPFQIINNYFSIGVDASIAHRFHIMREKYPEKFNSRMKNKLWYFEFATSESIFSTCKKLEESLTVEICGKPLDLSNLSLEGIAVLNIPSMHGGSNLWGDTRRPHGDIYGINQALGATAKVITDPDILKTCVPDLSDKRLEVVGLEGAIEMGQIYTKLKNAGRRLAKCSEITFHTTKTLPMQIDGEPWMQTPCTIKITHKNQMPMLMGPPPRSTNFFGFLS
Text: Alternatively, the enzymatic activity of human DGKα was monitored in a biochemical assay in the presence or absence of compounds and using micelles containing 18:1 Diacylglycerol (DAG), 16:0-18:1 PS (POPS) and Octylglucoside as substrate. DGKα activity led to conversion of DAG and ATP to Phosphatidic Acid (PA) and ADP. Levels of ADP were monitored by bioluminescence using the ADP-Glo Kinase Assay (Promega) and were indicative of DGKα activity.
Ten nanoliters of test compound dissolved in DMSO at various concentrations were dispensed into a 384-well low volume nonbinding service white plates (Corning #3824) using a Labcyte Echo instrument. Recombinant DGKα (Carna Biosciences) in assay buffer (5 μL in 50 mM MOPS [3-(N-morpholino) propanesulfonic acid], pH 7.2; 0.0025% Triton X-100; 1 mM dithiothreitol; 5 mM MgCl2, 200 μM ATP) was added to the compound-containing plate and was incubated for 15 minutes at 25° C. A substrate solution (5 μL in 1.7 mM 1,2-dioleoyl-sn-glycerol [18:1 DAG], 13.5 mM 1-palmitoyl-2-oleoyl-sn-glycero-3-phospho-L-serine [16:0-18:1 PS](POPS), 2 μM CaCl2, 100 mM Octylglucoside (OG), 1 mM DTT) (obtained from Carna Biosciences) diluted in DGK ALPHA assay buffer was then added to start the reaction. Final concentrations were 1 nM DGKα, 100 μM ATP, 1 μM calcium chloride, 0.85 mM 1,2-dioleoyl-sn-glycerol (18:1 DAG), 6.75 mM 1-palmitoyl-2-oleoyl-sn-glycero-3-phospho-L-serine (16:0-18:1 PS) (POPS), 1 μM CaCl2), 50 mM Octylglucoside (OG) and 5 mM MgCl2. The reaction mixture was incubated at 25° C. for 1 hour. ADP-Glo Reagent (10 μL, 10 mM Mg added) provided by the kit was added to each well and incubated at 25° C. for 40 minutes. Then, 20 μL of Kinase Detection Reagent was added and incubated at 25° C. for 40 minutes. Luciferase activity of each well was measured via luminescence on an Envision plate reader (PerkinElmer).
Data were normalized based on maximum inhibition (50 μM of kinase inhibitor CU3) and no inhibition (DMSO) controls. Least squares curve fittings were performed using a four-parameter variable slope nonlinear regression model. IC50 was defined as the concentration of compound required to inhibit 50% of maximum activity. IC50 values from multiple experiments were averaged by geometric mean and the standard deviation was calculated.

| SMILES | pEC50 [1] | pIC50 [2] |
| --- | --- | --- |
| Cc1nnc2nc(N3CCCc4c(C#CC5(C(F)(F)F)CC5)cncc43)c3c(F)cncc3n12 [Example 39, 6-fluoro-1-methyl-5-(5-((1-(trifluoromethyl)cyclopropyl)ethynyl)-3,4-dihydro-1,7-naphthyridin-1(2H)-yl)pyrido[4,3-e][1,2,4]triazolo[4,3-a]pyrimidine] | 8.32 | 7.58 |
| Cc1nnc2nc(N3CCCc4c(C#CC5(C)CC5)cccc43)c3c(F)cncc3n12 [Example 40, 6-fluoro-1-methyl-5-(5-((1-methylcyclopropyl)ethynyl)-3,4-dihydroquinolin-1(2H)-yl)pyrido[4,3-e][1,2,4]triazolo[4,3-a]pyrimidine] | 8.67 | 8.10 |
| CC(C)(O)C#Cc1cc(F)cc(N(CC(F)F)c2nc3nncn3c3cncc(F)c23)c1 [Example 42, 4-(3-((2,2-difluoroethyl)(6-fluoropyrido[4,3-e][1,2,4]triazolo[4,3-a]pyrimidin-5-yl)amino)-5-fluorophenyl)-2-methylbut-3-yn-2-ol] | 7.37 | 7.45 |
| Fc1cc(C#CC2(C(F)F)CC2)cc(N(CC(F)F)c2nc3nncn3c3cncc(F)c23)c1 [Example 43, N-(2,2-difluoroethyl)-N-(3-((1-(difluoromethyl)cyclopropyl)ethynyl)-5-fluorophenyl)-6-fluoropyrido[4,3-e][1,2,4]triazolo[4,3-a]pyrimidin-5-amine] | 8.26 | 7.48 |
| CC(C)(C)C#Cc1cc(F)cc(N(CC(F)F)c2nc3nncn3c3cncc(F)c23)c1 [Example 44, N-(2,2-difluoroethyl)-N-(3-(3,3-dimethylbut-1-yn-1-yl)-5-fluorophenyl)-6-fluoropyrido[4,3-e][1,2,4]triazolo[4,3-a]pyrimidin-5-amine] | 8.71 | 7.49 |
| CC1(C#Cc2cc(F)cc(N(CC(F)F)c3nc4nncn4c4cncc(F)c34)c2)CC1 [Example 45, N-(2,2-difluoroethyl)-6-fluoro-N-(3-fluoro-5-((1-methylcyclopropyl)ethynyl)phenyl)pyrido[4,3-e][1,2,4]triazolo[4,3-a]pyrimidin-5-amine] | 8.57 | 7.28 |
| CC(C)(C#Cc1cc(F)cc(N(CC(F)F)c2nc3nncn3c3cncc(F)c23)c1)C(F)(F)F [Example 46, N-(2,2-difluoroethyl)-6-fluoro-N-(3-fluoro-5-(4,4,4-trifluoro-3,3-dimethylbut-1-yn-1-yl)phenyl)pyrido[4,3-e][1,2,4]triazolo[4,3-a]pyrimidin-5-amine] | 8.48 | 7.39 |
| Fc1cc(C#CC2(C(F)(F)F)CC2)cc(N(CC(F)F)c2nc3nncn3c3cncc(F)c23)c1 [Example 47, N-(2,2-difluoroethyl)-6-fluoro-N-(3-fluoro-5-((1-(trifluoromethyl)cyclopropyl)ethynyl)phenyl)pyrido[4,3-e][1,2,4]triazolo[4,3-a]pyrimidin-5-amine] | 8.37 | 7.30 |
| Cc1nnc2nc(N(CC(F)F)c3cc(F)cc(C#CC(C)(C)O)c3)c3c(F)cncc3n12 [Example 48, 4-(3-((2,2-difluoroethyl)(6-fluoro-1-methylpyrido[4,3-e][1,2,4]triazolo[4,3-a]pyrimidin-5-yl)amino)-5-fluorophenyl)-2-methylbut-3-yn-2-ol] | 7.01 | 7.31 |
| Cc1nnc2nc(N(CC(F)F)c3cc(F)cc(C#CC4(C)CC4)c3)c3c(F)cncc3n12 [Example 49, N-(2,2-difluoroethyl)-6-fluoro-N-(3-fluoro-5-((1-methylcyclopropyl)ethynyl)phenyl)-1-methylpyrido[4,3-e][1,2,4]triazolo[4,3-a]pyrimidin-5-amine] | 8.22 | 7.90 |
| Cc1nnc2nc(N(CC(F)F)c3cc(F)cc(C#CC(C)(C)C(F)(F)F)c3)c3c(F)cncc3n12 [Example 50, N-(2,2-difluoroethyl)-6-fluoro-N-(3-fluoro-5-(4,4,4-trifluoro-3,3-dimethylbut-1-yn-1-yl)phenyl)-1-methylpyrido[4,3-e][1,2,4]triazolo[4,3-a]pyrimidin-5-amine] | 8.31 | 7.89 |
| Cc1nnc2nc(N(CC(F)F)c3cc(F)cc(C#CC4(C(F)(F)F)CC4)c3)c3c(F)cncc3n12 [Example 51, N-(2,2-difluoroethyl)-6-fluoro-N-(3-fluoro-5-((1-(trifluoromethyl)cyclopropyl)ethynyl)phenyl)-1-methylpyrido[4,3-e][1,2,4]triazolo[4,3-a]pyrimidin-5-amine] | 8.04 | 7.44 |
| Cc1nnc2nc(N(CC(F)F)c3ccnc(C#CC(C)(C)O)c3)c3c(F)cncc3n12 [Example 52, 4-(4-((2,2-difluoroethyl)(6-fluoro-1-methylpyrido[4,3-e][1,2,4]triazolo[4,3-a]pyrimidin-5-yl)amino)pyridin-2-yl)-2-methylbut-3-yn-2-ol] | 6.00 | 6.69 |
| Cc1nnc2nc(N(CC(F)F)c3ccnc(C#CC4(C(F)(F)F)CC4)c3)c3c(F)cncc3n12 [Example 53, N-(2,2-difluoroethyl)-6-fluoro-1-methyl-N-(2-((1-(trifluoromethyl)cyclopropyl)ethynyl)pyridin-4-yl)pyrido[4,3-e][1,2,4]triazolo[4,3-a]pyrimidin-5-amine] | 7.92 | 7.80 |
| CC(C)(O)C#Cc1cc(N(CC(F)F)c2nc3nncn3c3cncc(F)c23)ccn1 [Example 54, 4-(4-((2,2-difluoroethyl)(6-fluoropyrido[4,3-e][1,2,4]triazolo[4,3-a]pyrimidin-5-yl)amino)pyridin-2-yl)-2-methylbut-3-yn-2-ol] | 6.00 | 6.74 |
| Fc1cncc2c1c(N(CC(F)F)c1ccnc(C#CC3(C(F)(F)F)CC3)c1)nc1nncn12 [Example 55, N-(2,2-difluoroethyl)-6-fluoro-N-(2-((1-(trifluoromethyl)cyclopropyl)ethynyl)pyridin-4-yl)pyrido[4,3-e][1,2,4]triazolo[4,3-a]pyrimidin-5-amine] | 7.55 | 7.63 |
| Cc1nnc2nc(N3CCOCc4c(C#CC5CN(C)CCO5)cccc43)c3c(F)cncc3n12 (centres unmarked) [Example 56, 1-(10-fluoro-3-methyl-2,4,5,7,12-pentazatricyclo[7.4.0.02,6]trideca-1(13),3,5,7,9,11-hexaen-8-yl)-6-[2-(4-methylmorpholin-2-yl)ethynyl]-3,5-dihydro-2H-4,1-benzoxazepine] | 6.96 | 7.73 |
| CN(c1cncc(-c2ccc(C3CC3)cc2)n1)c1nc2nncn2c2cnccc12 [Example 57, N-[6-(4-cyclopropylphenyl)pyrazin-2-yl]-N-methyl-2,4,5,7,12-pentazatricyclo[7.4.0.02,6]trideca-1(13),3,5,7,9,11-hexaen-8-amine] | 8.00 | 6.89 |
| CCN(c1cccc(-c2ccc(C3CC3)nc2)c1)c1nc2nncn2c2cnccc12 [Example 58, N-[3-(6-cyclopropyl-3-pyridyl)phenyl]-N-ethyl-2,4,5,7,12-pentazatricyclo[7.4.0.02,6]trideca-1(13),3,5,7,9,11-hexaen-8-amine] | 7.54 | 6.66 |
